pEC50, pIC50: −log10 of the molar value. “Also recorded” adds a separate entry of the source. Read-outs that look alike come from different tables or passages of the source.
Legend:
[1] = over 8 weeks; cited from earlier work
FAK = target: T1, FAK (Homo sapiens, UniProt Q05397); assay: Cell-based FAK-Tyr-397 activation (Western blot, Caco-2 cells); conditions: for FAK activation / FAK-Tyr-397 phosphorylation (in words): vs. DMSO vehicle control
T1 construct: endogenous in cells; host or cells: Caco-2 (human, ATCC)
T1 sequence (Q05397 whole entry): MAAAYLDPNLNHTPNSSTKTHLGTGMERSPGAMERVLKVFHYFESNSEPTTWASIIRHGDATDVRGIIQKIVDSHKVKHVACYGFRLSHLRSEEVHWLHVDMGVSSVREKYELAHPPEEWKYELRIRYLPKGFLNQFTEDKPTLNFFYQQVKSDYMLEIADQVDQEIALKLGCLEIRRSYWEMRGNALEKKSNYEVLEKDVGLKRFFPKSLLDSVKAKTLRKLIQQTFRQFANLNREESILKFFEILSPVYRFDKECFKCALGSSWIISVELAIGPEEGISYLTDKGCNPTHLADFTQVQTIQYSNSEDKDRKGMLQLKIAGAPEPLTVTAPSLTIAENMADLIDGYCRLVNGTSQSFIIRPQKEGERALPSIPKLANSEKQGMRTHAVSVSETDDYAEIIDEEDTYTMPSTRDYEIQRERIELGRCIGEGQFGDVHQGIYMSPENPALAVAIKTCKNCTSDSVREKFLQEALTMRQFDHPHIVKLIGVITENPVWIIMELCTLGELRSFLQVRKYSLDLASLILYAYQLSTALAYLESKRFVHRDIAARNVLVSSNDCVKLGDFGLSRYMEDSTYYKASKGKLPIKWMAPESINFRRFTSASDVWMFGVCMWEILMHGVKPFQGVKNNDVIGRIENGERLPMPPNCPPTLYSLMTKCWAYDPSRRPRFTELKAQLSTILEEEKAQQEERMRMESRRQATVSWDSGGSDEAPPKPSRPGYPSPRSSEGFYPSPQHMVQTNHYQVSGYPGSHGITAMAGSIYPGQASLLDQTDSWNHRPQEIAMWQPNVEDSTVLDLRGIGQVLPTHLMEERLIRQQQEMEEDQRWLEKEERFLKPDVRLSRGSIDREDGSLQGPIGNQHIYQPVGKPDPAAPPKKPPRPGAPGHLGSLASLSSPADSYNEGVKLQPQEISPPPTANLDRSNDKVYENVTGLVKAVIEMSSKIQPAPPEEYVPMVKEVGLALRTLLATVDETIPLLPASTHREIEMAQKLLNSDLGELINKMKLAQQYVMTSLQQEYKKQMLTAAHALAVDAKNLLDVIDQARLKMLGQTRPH
Protocol: Human Caco-2 cells were from ATCC (Manassas, VA) and maintained in Dulbecco's Modified Essential Eagle's Medium supplemented with 10% FBS as described by us previously 25. 80-90% confluent Caco-2 cells were seeded into cell culture plates pacificated with 1% heat inactivated bovine serum albumin to prevent adhesion and avoid adhesion-associated background FAK activation. Suspended cells were then treated with DMSO (0.1%) or small molecules for 1 hour before harvesting for Western blotting.
Cells were lysed and protein concentration was determined via bicinchoninic acid protein assay (Thermo Fisher, Rockford, IL). […] Images were taken using a LICOR-Odyssey-Fc imaging system (LI-COR Biosciences, Lincoln, NE).

Caco-2 cells = assay: Caco-2 monolayer wound closure assay; format: cell-based, human; conditions: for monolayer wound closure / epithelial sheet migration (in words): in vitro, 24 hours
Protocol: Caco-2 cells were seeded at 75-80% confluence into collagen I coated 6-well plates. When the cells reached 100% confluence, wounds were made in the monolayers with non-barrier autoclaved tips. Wound images were captured using an inverted light microscope (OLYMPUS CK2, Center Valley, PA) at 0 hours and 24 hours after treatment with DMSO or small molecules. Wound areas were measured with Image J software.

Pyk2 = target: T2, Pyk2 (Homo sapiens, UniProt Q14289); assay: Pyk2 activation in intact cells; format: cell-based
T2 construct: endogenous in cells; host or cells: Caco-2
T2 sequence (Q14289 whole entry): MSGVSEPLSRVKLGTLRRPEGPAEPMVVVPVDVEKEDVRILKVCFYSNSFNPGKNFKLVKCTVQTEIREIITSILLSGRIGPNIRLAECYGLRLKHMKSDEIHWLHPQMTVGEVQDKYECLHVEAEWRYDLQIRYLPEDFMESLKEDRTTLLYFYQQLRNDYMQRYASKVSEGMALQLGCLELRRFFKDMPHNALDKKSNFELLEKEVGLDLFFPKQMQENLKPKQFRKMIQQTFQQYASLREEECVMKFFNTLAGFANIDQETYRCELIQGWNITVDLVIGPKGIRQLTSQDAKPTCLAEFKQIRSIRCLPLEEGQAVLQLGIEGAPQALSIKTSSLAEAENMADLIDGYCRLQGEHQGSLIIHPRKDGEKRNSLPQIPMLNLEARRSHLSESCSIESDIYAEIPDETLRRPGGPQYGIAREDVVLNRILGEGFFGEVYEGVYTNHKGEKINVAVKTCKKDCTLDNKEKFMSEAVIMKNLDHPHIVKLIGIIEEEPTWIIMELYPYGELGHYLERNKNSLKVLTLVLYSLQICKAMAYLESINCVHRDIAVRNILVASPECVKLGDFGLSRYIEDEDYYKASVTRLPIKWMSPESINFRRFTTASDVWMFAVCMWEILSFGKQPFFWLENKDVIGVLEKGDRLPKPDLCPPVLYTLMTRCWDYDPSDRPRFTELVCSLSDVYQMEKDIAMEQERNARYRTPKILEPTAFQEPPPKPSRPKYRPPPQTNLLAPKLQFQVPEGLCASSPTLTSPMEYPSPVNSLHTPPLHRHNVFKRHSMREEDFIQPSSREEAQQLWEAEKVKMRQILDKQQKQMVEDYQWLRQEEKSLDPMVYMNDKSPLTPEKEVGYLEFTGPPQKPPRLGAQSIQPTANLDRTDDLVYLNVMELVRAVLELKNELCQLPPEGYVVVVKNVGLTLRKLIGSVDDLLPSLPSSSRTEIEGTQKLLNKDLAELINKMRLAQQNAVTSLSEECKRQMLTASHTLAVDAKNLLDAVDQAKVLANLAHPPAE

Src = target: T3, Src (Homo sapiens, UniProt P12931); assay: Src activation in intact cells; format: cell-based
T3 construct: endogenous in cells; host or cells: Caco-2
T3 sequence (P12931 whole entry): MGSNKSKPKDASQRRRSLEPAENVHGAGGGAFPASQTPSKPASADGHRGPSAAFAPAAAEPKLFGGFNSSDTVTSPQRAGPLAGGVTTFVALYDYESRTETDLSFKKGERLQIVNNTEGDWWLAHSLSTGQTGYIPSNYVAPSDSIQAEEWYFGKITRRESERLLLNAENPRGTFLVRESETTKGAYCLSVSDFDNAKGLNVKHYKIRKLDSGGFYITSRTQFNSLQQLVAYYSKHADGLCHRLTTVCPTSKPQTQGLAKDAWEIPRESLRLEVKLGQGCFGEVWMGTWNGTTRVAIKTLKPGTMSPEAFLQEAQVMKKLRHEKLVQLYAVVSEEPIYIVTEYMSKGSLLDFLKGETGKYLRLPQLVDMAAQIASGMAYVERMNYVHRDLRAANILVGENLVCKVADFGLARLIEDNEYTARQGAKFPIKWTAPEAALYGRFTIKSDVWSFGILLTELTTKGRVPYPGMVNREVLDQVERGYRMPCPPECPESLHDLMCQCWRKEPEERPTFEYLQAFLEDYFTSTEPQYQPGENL

[2] = test system: intestinal mucosal ulcers; assay: Intestinal mucosal healing in vivo (model not given); design: species or system mice; conditions: mouse
[3] = test system: ischemic ileal mucosal ulcers; assay: Ischemic ileal ulcer model (acetic-acid-soaked discs on serosa); format: in vivo, mice
[4] = test system: IMR-90 human pulmonary fibroblasts; assay: Cytotoxicity in IMR-90 cells; format: cell-based; conditions: IMR90
[5] = test system: SH-SY5Y human neuronal cells; assay: Cytotoxicity in SH-SY5Y cells; format: cell-based
[6] = B/P ratio and blood-brain barrier crossing; format: in vivo
Human plasma stability = format: in vitro ADME; conditions: at 6 h
Plasma protein binding = format: in vitro ADME; conditions: plasma
Excerpt: (§1) The most successful molecules underwent in vitro ADMET assays, including mouse and human metabolic stability, solubility (pH 7.4), Caco-2 (permeability), and log D determination. We will evaluate lead candidates for drug-like properties, including aqueous solubility (PBS buffer, pH 7.4), pKa, lipophilicity, chemical stability at pH 1 (the pH of the stomach), pH 6 (small intestine), A-B partitioning (octanol-PBS buffer, pH 7.4), liver microsomal stability as an indication of potential first-pass metabolism (microsomes from mouse and humans), substrate potential for isoforms of human P450 such as CYP3A4, cell permeability (Caco-2 cells), hERG toxicity (cell lines), mutagenesis, and plasma protein binding (mouse & human). […]. Computed physical properties that correlate with good oral bioavailability and cell permeability will be calculated for new compounds throughout the optimization process and will […] also influence lead compound selection as will ligand efficiency (LE) and lipophilic efficiency (LLE). Molecules will be administered by gavage to mice at 30 mg/kg, and we will measure plasma levels at 2 and 4 hours. The most successful molecules in this regard (with the highest levels at 2 and 4 hours) may be further modified by developing combinations of modifications at different parts of the molecule.

CYP 2C9 = CYP 2C9 (Homo sapiens, UniProt P11712); assay: CYP 2C9 inhibition; format: in vitro ADME
Excerpt: as §1

CYP 2C19 = CYP 2C19 (Homo sapiens, UniProt P33261); assay: CYP 2C19 inhibition; format: in vitro ADME
Chain of CYP 2C19 (P33261 whole entry): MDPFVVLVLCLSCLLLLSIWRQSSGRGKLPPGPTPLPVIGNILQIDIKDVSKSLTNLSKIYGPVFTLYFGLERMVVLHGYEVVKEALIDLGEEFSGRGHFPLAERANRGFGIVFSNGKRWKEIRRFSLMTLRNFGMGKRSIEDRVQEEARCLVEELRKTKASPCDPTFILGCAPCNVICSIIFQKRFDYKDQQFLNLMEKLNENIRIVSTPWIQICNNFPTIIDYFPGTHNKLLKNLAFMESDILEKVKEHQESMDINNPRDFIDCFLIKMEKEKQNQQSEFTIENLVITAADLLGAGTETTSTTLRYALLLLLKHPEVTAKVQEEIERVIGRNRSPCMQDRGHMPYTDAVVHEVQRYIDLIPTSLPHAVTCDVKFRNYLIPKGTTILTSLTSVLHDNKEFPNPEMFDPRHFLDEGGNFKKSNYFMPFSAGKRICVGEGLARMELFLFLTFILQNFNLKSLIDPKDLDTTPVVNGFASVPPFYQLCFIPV
Excerpt: as §1

CYP 2D6 = CYP 2D6 (Homo sapiens, UniProt P10635); assay: CYP 2D6 inhibition; format: in vitro ADME
Chain of CYP 2D6 (P10635 whole entry): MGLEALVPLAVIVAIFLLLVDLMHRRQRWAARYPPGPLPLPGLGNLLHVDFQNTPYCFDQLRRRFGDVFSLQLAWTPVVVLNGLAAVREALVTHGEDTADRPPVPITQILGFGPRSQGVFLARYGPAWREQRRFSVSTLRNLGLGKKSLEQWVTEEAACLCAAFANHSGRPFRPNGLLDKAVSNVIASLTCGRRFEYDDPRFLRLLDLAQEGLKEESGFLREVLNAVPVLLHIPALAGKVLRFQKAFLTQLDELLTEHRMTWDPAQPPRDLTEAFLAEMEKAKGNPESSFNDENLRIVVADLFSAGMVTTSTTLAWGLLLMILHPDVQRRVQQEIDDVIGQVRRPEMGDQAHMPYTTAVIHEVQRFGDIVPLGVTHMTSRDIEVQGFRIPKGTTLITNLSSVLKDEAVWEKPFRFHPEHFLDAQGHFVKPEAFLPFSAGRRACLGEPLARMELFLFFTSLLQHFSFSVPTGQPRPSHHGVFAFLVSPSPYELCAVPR
Excerpt: as §1

hERG = hERG (Homo sapiens, UniProt Q12809); assay: hERG toxicity; format: cell-based
Chain of hERG (Q12809 whole entry): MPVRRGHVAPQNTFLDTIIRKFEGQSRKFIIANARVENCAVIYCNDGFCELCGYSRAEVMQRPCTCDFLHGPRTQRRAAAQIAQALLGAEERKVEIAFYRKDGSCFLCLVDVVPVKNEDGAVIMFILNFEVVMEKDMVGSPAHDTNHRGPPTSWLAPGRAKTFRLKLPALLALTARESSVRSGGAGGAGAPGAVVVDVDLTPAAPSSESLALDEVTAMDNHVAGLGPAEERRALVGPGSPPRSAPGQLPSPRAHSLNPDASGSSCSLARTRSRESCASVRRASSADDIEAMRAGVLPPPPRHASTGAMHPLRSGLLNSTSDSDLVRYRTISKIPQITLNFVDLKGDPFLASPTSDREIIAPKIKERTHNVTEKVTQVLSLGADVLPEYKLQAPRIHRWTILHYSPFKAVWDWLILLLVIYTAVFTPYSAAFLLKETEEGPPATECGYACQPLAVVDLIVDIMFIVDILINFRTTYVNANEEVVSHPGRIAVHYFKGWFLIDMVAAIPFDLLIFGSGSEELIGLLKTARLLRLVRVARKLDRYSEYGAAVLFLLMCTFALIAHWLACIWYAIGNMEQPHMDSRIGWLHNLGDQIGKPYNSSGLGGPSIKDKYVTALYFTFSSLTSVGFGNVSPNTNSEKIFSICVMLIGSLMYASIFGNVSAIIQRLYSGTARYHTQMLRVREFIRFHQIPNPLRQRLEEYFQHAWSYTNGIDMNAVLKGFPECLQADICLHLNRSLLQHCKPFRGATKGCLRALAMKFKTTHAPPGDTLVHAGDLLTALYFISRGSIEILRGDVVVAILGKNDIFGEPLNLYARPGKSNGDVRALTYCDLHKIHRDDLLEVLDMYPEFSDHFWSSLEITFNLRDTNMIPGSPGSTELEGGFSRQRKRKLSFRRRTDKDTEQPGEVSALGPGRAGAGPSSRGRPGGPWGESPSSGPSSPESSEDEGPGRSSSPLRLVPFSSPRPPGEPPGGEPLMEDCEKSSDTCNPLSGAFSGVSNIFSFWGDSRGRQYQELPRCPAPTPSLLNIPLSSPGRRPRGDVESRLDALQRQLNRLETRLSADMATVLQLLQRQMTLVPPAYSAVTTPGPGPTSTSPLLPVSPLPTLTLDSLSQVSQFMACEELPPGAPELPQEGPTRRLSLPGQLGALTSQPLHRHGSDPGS
Excerpt: as §1

Mini-Ames = assay: Mini-Ames
Excerpt: as §1

log D determination = format: physicochemical; conditions: pH 7.4
Excerpt: as §1

Solubility = format: physicochemical
Excerpt: as §1

mice = conditions: mouse, in vivo
[7] = mouse, in vivo, po
in vivo = conditions: mouse, T1/2
FAK 35 kD kinase domain = FAK 35 kD kinase domain (Homo sapiens, UniProt Q05397); assay: In vitro kinase assay with purified FAK kinase domain; conditions: FIG. 5
Chain of FAK 35 kD kinase domain (Q05397 422-680 limits assumed): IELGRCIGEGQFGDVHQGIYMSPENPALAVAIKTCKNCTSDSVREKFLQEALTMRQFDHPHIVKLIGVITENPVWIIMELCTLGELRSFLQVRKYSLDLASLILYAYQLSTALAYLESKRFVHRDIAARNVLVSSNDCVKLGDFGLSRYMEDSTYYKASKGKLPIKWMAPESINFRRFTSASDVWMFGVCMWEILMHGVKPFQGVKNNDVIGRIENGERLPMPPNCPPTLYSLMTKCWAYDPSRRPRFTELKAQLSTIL

In the case of `CCCCC(C)(O)C/C=C/[C@H]1[C@H](O)CC(=O)[C@@H]1CCCCCCC(=O)OC` (mixture of isomers) [Misoprostol], the serious side effects [1] is given as 8%.
For `COc1ccc(C2CCCN2C(=O)Nc2cc(C(F)(F)F)ccc2N2CCOCC2)cc1` (stereo not shown) [Compound 9], the “concentration as low as which FAK is activated” value (FAK) was 10 nM, the “FAK activation / FAK-Tyr-397 phosphorylation (in words)” value (FAK) was “increased FAK-Tyr 397 phosphorylation” and the “monolayer wound closure / epithelial sheet migration (in words)” value (Caco-2 cells) was “stimulated monolayer wound closure”. The “Pyk2 activation (in words)” value (Pyk2; intact cells) was “activating neither”, the “Src activation (in words)” value (Src; intact cells) was “activating neither” and the “intestinal mucosal healing in vivo (in words)” value [2] was “stimulated”.
With `COc1ccc(C2CCCN2C(=O)CC(NC(N)=O)c2ccccc2Cl)cc1OC` (stereo not shown) [Compound 10] the “concentration as low as which FAK is activated” value (FAK) was 10 nM.
For `O=C(Nc1cc(C(F)(F)F)ccc1C1CCOCC1)N1CCCC1c1ccccc1` (stereo not shown) [Compound 14], the FAK-Tyr-397/FAK fold change (FAK; Cell-based FAK-Tyr-397 activation) was 1.0 fold change and the “FAK activation / FAK-Tyr-397 phosphorylation (in words)” value (FAK) was “reduced activation”.
In the case of `COc1ccc(CC(C)C(=O)Nc2ccc(N(C)C)cc2C)cc1` (stereo not shown) [Compound 19], the “FAK activation / FAK-Tyr-397 phosphorylation (in words)” value (FAK) was “does not enhance FAK activation”.
For `O=C(Nc1cc(C(F)(F)F)ccc1N1CCOCC1)N1CCCC1C1CCCCC1` (stereo not shown) [Compound 21], the “concentration level of FAK activation (in words)” value (FAK) was “nanomolar to picomolar levels”, the “FAK activation / FAK-Tyr-397 phosphorylation (in words)” value (FAK) was “increased; also recorded: stimulate FAK phosphorylation at remarkably low concentrations” and the “monolayer wound closure / epithelial sheet migration (in words)” value (Caco-2 cells) was “promote the healing of intestinal epithelial wounds in vitro”.
With `O=C(Nc1cc(C(F)(F)F)ccc1N1CCOCC1)N1CCCC1c1ccncc1` (stereo not shown) [Compound 24] the “concentration level of FAK activation (in words)” value (FAK) was “considerably lower concentration than 45”, the “concentration as low as which FAK is activated” value (FAK; Caco-2 cells) was 0.1 nM and the pEC50 (FAK; in vitro, assay not named in Table 4, read-out: FAK potency EC50) was > 8.00. For the same compound, the “FAK activation / FAK-Tyr-397 phosphorylation (in words)” value (FAK) was “seemed to activate FAK”, the “concentration as low as which in vitro wound closure is stimulated” value (Caco-2 cells) was 100 pM and the “Selectivity against relative off-targets: no Pyk2 activation at multiple of FAK activation” value (Pyk2) was “activation at >1000 × × FAK activation”. For the same compound, the “Selectivity against relative off-targets: no Src activation at multiple of FAK activation” value (Src) was “activation at >1000 × × FAK activation”, the “ischemic ulcer healing (in words)” value ([3]; mice, 40: 30 mg/kg/day by osmotic minipump, 4 days, 30 mg/kg/day) was “accelerated; also recorded: can heal intestinal mucosal ulcers” and the Mouse therapeutic dose ([3]; × 4 days) was <30 mg/kg/day. For the same compound, the “intestinal mucosal healing in vivo (in words)” value [2] was “promoting small bowel mucosal wound healing”, the “Cytotoxicity (LD50)” value [4] was >1 mM and the “Cytotoxicity (LD50)” value [5] was >1 mM. The B/P ratio ([6]; 2 h) was “B/P ratio <0.15”, the “blood-brain barrier crossing (in words)” value ([6]; in vivo) was “cross the blood-brain barrier” and the Human plasma stability (Human plasma stability) was 98.62% at 6 h. The fraction unbound (Plasma protein binding) was 0.0949, the pIC50 (CYP 2C9) was 5.35 and the pIC50 (CYP 2C19) was 5.27. The pIC50 (CYP 2D6) was 5.00, the hERG (hERG) was “hERG = 2.958 μM” and the Mini-Ames (Mini-Ames) was “negative”. The “log D7.4” value (log D determination) was “log D7.4 = 3.12”, the “water solubility / need of DMSO (in words)” value (Solubility) was “required DMSO solubilization; also recorded: somewhat less insoluble” and the solubility (Solubility; PBS buffer, pH 7.4, aqueous buffer) was 252 µM. The “neurotoxicity (in words)” value (mice) was “no neurotoxicity was detected”, the “tolerability / gross toxicity in mice (in words)” value (mice) was “without obvious toxicity” and the “oral / enteral absorption (in words)” value [7] was “readily orally”. For the same compound, the half-life (in vivo) was ~1.5 h and the “concentration of maximal effect in in vitro kinase assay” value (FAK 35 kD kinase domain) was “about 0.3 nM”.

— patent publication US20240024333A1, “USE OF SMALL MOLECULE FAK ACTIVATORS TO PROMOTE MUCOSAL HEALING” (Regents of the University of Minnesota, priority 2020, published 2024)
